From patent publication US20250154123A1, “COOLING COMPOUNDS AND COMPOSITIONS” (V. MANE FILS, priority 2022, published 2025)

Experiments:
[1] = Organoleptic evaluation in still water by a trained panel (cooling intensity over time); format: in vivo, human
Text: Inventive compounds 1, 2 and 5 were organoleptically evaluated in still water by a trained panel. […] […] These inventive compounds appear to behave similarly to the comparative compounds.

[2] = Chewing gum evaluation protocol, cooling intensity rated 0-10 by 6 trained panelists over 10 min; format: in vivo, human; details: 0.20 wt % in chewing gum, chewed 10 min, 6 panelists
Protocol: An unflavored chewing gum paste was prepared using the following formulation: Sorbitol (52.4 wt %), gum base (30.0 wt %), maltitol syrup (7.0 wt %), glycerine (5.0 wt %), mannitol (5.0 wt %), soy lecithin (0.4 wt %), acesulfame-K (0.1 wt %), and aspartame (0.1 wt %). The paste was warmed 1-2 min using a micro-wave to soften the mixture. After adding the cooling agent (0.20 wt % Compound 1), the paste was kneaded to homogenise the product. Then the paste is stretched using a sheeter, flatted at 2 mm thick, and cut in regular rectangular pieces (12×42 mm). Chewing-gums pieces are packed in plastic bag and put 1 week at room temperature to let them stabilise. Comparative chewing gum samples (A-C) were also prepared using 0.26 wt % PHYSCOOL™; 0.21 wt % WS-3™; and 0.17 wt % WS-23™, respectively.
A chewing gum evaluation protocol was performed by 6 trained panelists, where the chewing gum was chewed for 10 min while holding the panelist's mouth closed. The cooling intensity was rated from 0 (not perceived) to 10 (very intense) at 5 sec, 15 sec, 30 sec, 45 sec, 1 min, 1.5 min, 2 min, and then every minute until 10 minutes.

hTRPM8 ion channel = molecular target: T1, hTRPM8 ion channel (Homo sapiens, UniProt Q7Z2W7); assay: Primary in vitro screening on hTRPM8 (CHO-KJ cells, FLUO-8 calcium fluorometry, relative to icilin); format: cell-based; details: for % activation vs iciline: CHO-KJ cells expressing hTRPM8; for activation on hTRPM8 compared with comparative molecules (Physcool, WS-5, WS-3, l-isopulegol, l-menthol, menthyl lactate): primary screening, Table 1
T1 construct: expressed in transfected cells; host or cells: CHO-KJ cells [sic]
Protocol: (§1) The compounds were evaluated in vitro on CHO-KJ cells expressing the gene encoding the hTRPM8 ion channel (Table 1). Channel activation is determined by fluorometric measurement of […] calcium using FLUO-8. The activity of the compounds was measured relative to icilin (known hTRPM8 agonist).

hTRPM8 [3] = molecular target: T2, hTRPM8 (Homo sapiens, UniProt Q7Z2W7); assay: Secondary in vitro screening on hTRPM8 at 5 μM versus WS-3; format: cell-based; details: WS3 as reference compound
T2 construct: expressed in transfected cells; host or cells: CHO-KJ cells [sic]
Protocol: as §1
The compounds 1 to 40 were tested on hTRPM8 at 5 μM using WS3 as the reference compound (Table 2).

hTRPM8 [4] = molecular target: T2, hTRPM8; assay: EC50 measurement on hTRPM8 (response curve); format: cell-based; details: for EC50: hTRPM8, response curve
Protocol: as §1
A response curve was developed for compounds 1, 3, 5 and 37 which made it possible to determine the EC50 (half maximal effective concentration) values on hTRPM8 and compare them with the EC50 values of the comparative compounds (Table 3).

T1 sequence (Q7Z2W7 whole entry): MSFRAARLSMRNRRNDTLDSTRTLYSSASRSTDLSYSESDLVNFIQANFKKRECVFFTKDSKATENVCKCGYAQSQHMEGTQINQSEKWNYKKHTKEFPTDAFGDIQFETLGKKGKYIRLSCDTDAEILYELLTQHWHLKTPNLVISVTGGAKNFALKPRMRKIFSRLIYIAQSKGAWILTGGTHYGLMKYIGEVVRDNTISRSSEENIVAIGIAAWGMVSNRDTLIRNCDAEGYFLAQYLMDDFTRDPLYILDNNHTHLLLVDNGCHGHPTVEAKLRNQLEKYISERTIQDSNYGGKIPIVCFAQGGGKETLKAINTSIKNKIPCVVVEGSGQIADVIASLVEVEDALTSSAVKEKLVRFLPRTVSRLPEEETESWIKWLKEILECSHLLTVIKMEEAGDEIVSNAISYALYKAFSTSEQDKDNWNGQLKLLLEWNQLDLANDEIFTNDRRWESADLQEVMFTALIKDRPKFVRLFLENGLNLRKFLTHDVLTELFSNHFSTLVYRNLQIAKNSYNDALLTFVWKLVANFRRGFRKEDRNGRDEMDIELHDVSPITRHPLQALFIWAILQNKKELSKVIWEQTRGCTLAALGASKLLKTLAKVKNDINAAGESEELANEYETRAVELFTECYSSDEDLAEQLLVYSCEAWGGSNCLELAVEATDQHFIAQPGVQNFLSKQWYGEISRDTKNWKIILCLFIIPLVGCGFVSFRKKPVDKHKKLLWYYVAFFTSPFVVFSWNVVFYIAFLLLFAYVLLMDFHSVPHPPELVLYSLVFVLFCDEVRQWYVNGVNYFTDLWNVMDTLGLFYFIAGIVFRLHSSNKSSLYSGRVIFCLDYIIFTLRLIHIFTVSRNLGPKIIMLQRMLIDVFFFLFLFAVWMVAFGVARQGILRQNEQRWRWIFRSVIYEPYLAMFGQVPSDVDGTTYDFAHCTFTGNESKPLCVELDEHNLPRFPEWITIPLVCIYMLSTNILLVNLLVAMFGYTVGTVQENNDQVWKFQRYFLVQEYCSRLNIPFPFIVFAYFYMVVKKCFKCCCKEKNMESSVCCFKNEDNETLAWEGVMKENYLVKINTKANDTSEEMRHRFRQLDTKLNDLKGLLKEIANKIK
T2 sequence (Q7Z2W7 whole entry): as above

Row | % activation vs iciline (hTRPM8 ion channel; concentration 156 μM) [%] | activation at 5 µM (hTRPM8 [3]) [%] | EC50 (hTRPM8 [4]) [µM] | % activation vs iciline (hTRPM8 ion channel; concentration 96 μM) [%] | Compound | cooling effect versus Physcool ([1]; equimolar, larger panel, over 10 min, FIG. 3) | freshness in the mouth ([1]; still water, trained panel) | duration of cooling intensity in chewing gum, similar to WS-3 (0.21 wt %) and WS-23 (0.17 wt %) [2] | cooling intensity and duration in chewing gum versus Comparative Sample A (0.26 wt % PHYSCOOL) ([2]; average) | activation on hTRPM8 compared with comparative molecules (Physcool, WS-5, WS-3, l-isopulegol, l-menthol, menthyl lactate) (hTRPM8 ion channel) | EC50 on hTRPM8 compared with WS-3 and WS-5 (hTRPM8 [4]; Table 3)
1 | 199 | 99 | 4.6 | – | CC(C)[C@@H]1CC[C@@H](C)CC1(CO)CO [Compound 1, ((2S,5R)-2-isopropyl-5-methylcyclohexane-1,1-diyl)dimethanol] | persistent cooling effect similar to Physcool® but with a greater intensity | freshness in the mouth with both an attack and a good persistence | long cooling intensity out to 10 minutes | more initial cooling intensity and longer lasting duration than Comparative Sample A | greater activations than the comparative molecules | EC50 values lower than WS-3™ and similar to WS-5™
2 | – | 16 | 39 | 176 | COc1cc(C2OCC3(CO2)C[C@H](C)CC[C@H]3C(C)C)ccc1O (stereo partly drawn) [Compound 5, 4-((7S,10R)-7-isopropyl-10-methyl-2,4-dioxaspiro[5.5]undecan-3-yl)-2-methoxyphenol] | – | – | – | – | greater activations than the comparative molecules | –
